The target in this test is T1, Tyrosine-protein kinase receptor UFO (Homo sapiens, UniProt P30530).
T1 sequence (P30530 whole entry): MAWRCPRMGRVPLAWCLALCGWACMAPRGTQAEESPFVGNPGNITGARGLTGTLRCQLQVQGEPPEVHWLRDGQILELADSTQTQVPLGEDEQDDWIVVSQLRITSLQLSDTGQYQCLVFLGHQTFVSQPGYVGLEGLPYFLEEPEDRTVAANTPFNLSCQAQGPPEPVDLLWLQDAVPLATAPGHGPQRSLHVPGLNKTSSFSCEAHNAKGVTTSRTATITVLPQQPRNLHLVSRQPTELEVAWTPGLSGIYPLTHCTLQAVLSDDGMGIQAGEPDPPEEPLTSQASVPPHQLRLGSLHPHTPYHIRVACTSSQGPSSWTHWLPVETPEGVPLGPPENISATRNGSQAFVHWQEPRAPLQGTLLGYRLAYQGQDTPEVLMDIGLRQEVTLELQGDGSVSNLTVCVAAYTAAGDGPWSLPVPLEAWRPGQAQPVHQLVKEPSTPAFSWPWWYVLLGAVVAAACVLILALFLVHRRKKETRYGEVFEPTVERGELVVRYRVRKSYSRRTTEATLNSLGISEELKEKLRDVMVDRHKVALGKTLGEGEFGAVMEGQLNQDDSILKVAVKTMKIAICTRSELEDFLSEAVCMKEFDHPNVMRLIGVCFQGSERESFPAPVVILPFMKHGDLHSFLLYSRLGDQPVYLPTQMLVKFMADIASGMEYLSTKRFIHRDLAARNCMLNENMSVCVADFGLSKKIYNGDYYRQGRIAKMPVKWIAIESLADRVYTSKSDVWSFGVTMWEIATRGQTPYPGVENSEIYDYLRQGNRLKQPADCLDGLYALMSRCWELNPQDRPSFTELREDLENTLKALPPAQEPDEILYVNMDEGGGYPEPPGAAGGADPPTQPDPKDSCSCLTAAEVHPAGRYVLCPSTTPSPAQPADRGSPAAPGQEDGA
The experiment in a line: Inhibition of human recombinant AXL incubated for 1 to 1.5 hrs by FRET based Z'-Lyte kinase assay.
Take `Cc1c(C(=O)Nc2ccc(Oc3ncnc4[nH]cc(-c5ccccc5)c34)c(F)c2)c(=O)c2cc(F)ccc2n1C`: the IC50 was more than 10 µM.

As to `Cc1c(C(=O)Nc2ccc(Oc3ncnc4[nH]cc(-c5ccccc5)c34)c(F)c2)c(=O)c2cc(-c3ccccc3)ccc2n1C`, the IC50 was more than 10 µM.

For `Cc1c(C(=O)Nc2ccc(Oc3ncnc4[nH]cc(-c5ccccc5)c34)c(F)c2)c(=O)c2cc3ccccc3cc2n1C`, the IC50 is more than 10 µM.

By IC50 is commonly meant the midpoint of a concentration-inhibition curve.

The values are drawn from BindingDB's records for doi:10.1021/acs.jmedchem.6b00608 (Chinese Academy of Sciences, 2016).
